Patent publication US6451807B1, “Methods of treating sexual dysfunction in an individual suffering from a retinal disease, class 1 congestive heart failure, or myocardial infarction using a PDE5 inhibitor” (Lilly Icos, LLC., priority 1999, dated 2002)

Molecular target: T1, PDE1c (Homo sapiens, UniProt Q14123)
T1 construct: made in house; host or cells: Spodoptera frugiperda Sf9 cells
Experiment: PDE1c enzyme inhibition, IC50 determination
Format: biochemical
Settings: read-out: IC50 against PDE1c
Method: Cell pellets (5g) were thawed on ice with 20 ml of Lysis Buffer (50 mM MOPS pH 7.4, 10 μM ZnSO4, 0.1 mM CaCl2, 1 mM DTT, 2 mM benzamidine HCl, 5μg/ml each of pepstatin, leupeptin, and aprotenin). Cells were lysed by passage through a French pressure cell (SLM-Aminco) while temperatures were maintained below 10° C. The resultant cell homogenate was centrifuged at 36,000 rpm at 4° C. for 45 minutes in a Beckman ultracentrifuge using a Type TI45 rotor. The supernatant was discarded and the resultant pellet was resuspended with 40 ml of Solubilization Buffer (Lysis Buffer containing 1M NaCl, 0.1M MgCl2, 1 mM CaCl2, 20 μg/ml calmodulin, and 1% Sulfobetaine SB12 (Z3-12) by sonicating using a VibraCell tuner with a microtip for 3×30 seconds. This was performed in a crushed ice/salt mix for cooling. Following sonication, the mixture was slowly mixed for 30 minutes at 4° C. to finish solubilizing membrane bound proteins. This mixture was centrifuged in a Beckman ultracentrifuge using a type TI45 rotor at 36,000 rpm for 45 minutes. The supernatant was diluted with Lysis Buffer containing 10 μg/ml calpain inhibitor I and II. The precipitated protein was centrifuged for 20 minutes at 9,000 rpm in a Beckman JA-10 rotor. The recovered supernatant then was subjected to Mimetic Blue AP Agarose Chromatography. […]

T1 sequence (Q14123 whole entry, species assumed): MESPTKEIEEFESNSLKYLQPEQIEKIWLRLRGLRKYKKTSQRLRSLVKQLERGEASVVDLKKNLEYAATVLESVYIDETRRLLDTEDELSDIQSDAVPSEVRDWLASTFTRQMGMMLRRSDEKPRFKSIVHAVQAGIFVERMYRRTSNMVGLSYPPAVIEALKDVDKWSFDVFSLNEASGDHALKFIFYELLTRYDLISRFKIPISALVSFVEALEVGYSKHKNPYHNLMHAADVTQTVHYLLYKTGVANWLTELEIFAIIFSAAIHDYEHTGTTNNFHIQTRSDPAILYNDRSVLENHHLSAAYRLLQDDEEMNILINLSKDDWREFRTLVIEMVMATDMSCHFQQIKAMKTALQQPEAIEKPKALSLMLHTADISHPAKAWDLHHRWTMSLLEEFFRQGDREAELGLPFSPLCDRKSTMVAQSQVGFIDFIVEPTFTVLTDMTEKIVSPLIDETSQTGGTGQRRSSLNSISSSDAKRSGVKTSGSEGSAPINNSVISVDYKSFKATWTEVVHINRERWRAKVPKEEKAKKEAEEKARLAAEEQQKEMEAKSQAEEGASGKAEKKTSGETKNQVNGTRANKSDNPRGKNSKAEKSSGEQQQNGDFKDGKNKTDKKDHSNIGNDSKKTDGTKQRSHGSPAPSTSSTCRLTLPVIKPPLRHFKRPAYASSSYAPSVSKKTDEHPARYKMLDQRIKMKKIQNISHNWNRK

CN1CC(=O)N2[C@H](c3ccc4c(c3)OCO4)c3[nH]c4ccccc4c3C[C@@H]2C1=O [Compound 5, (6R-trans)-6-(1,3-benzodioxol-5-yl)-2,3,6,7,12,12a-hexahydro-2-methylpyrazino[1′,2′:1,6]pyrido[3,4-b]indole-1,4-dione]
IC50: 10 µM
